Measurements reported in patent US20100240758A1, “EXTERNAL PREPARATION FOR PERCUTANEOUS ADMINISTRATION CONTAINING NONSTEROIDAL ANTI-INFLAMMATORY ANALGESIC” (Hisamitsu Pharmaceutical Co., Inc., priority 2003, published 2010).

Key:
Balb/c mouse [1] = experiment: In vivo phototoxicity test (auricular light irradiation, ear swelling due to ketoprofen); conditions: UVA 40 J/cm^2, 24 hours after irradiation, toward KP group
Description: The experiment below was carried out by partially refining the method of Gerberick et al., (Food Chem. Toxicol., 27, 813-819 (1989)). That is, a Balb/c mouse (female, 9 to 11 weeks old) was used as a test animal, each of the test substances {4-tert-butyl-4′-methoxydibenzoylmethane (BM-DBM), 2-ethylhexyl dimethoxybenzylidenedioxoimidazolidine propionate (DB-DIH), terephthalylidene-3,3′-dicamphor-10,10′-disulfonic acid (TP-DCS), n-hexyl 2-(4-diethylamino-2-hydroxybenzoyl)benzoate (DHB-BH)} and 2% ketoprofen (KP) were dissolved in ethanol and applied to the auricle, and it was irradiated with UVA at 40 J/cm^2. 24 hours after UVA irradiation, the ear thickness was measured, and an increase from the ear thickness prior to the start of the test was calculated. The effect in suppressing phototoxicity due to KP was evaluated for each test substance using as an index the degree of suppression of the increase in ear thickness due to KP, that is, the ear swelling suppression rate (%) toward the KP group.

Balb/c mouse [2] = experiment: In vivo photoallergy test 1 (refined Murine Local Lymph Node Assay, 3H-TdR uptake); conditions: UVA 20 J/cm^2, 3 days, toward KP group
Description: A KP photoallergy detection test was carried out by refining the Murine Local Lymph Node Assay (LLNA) proposed by the Interagency Coordinating Committee on the Validation of Alternative Methods (ICCVAM). That is, a Balb/c mouse (female, 8 to 12 weeks old) was used as a test animal, a solution of a test substance {4-tert-butyl-4′-methoxydibenzoylmethane (BM-DBM)} and 2% ketoprofen (KP) prepared in acetone—olive oil (4:1, v/v) was applied to the back of the pinna, and it was irradiated with UVA at 20 J/cm^2. This sensitization induction treatment was carried out for 3 days in succession. 5 days after starting the sensitization, 20 μCi per mouse of ^3H-methyl thymidine (^3H-TdR)/PBS solution was injected into the tail vein, and 5 hours later an auricular lymph node was removed. The removed lymph node was made into a single lymph cell suspension using a cell strainer, and after washing twice with PBS was then allowed to stand in a 5% trichloroacetic acid (TCA) solution at 4° C. overnight to thus make DNA precipitate. After the precipitate was suspended in 1 mL of 5% TCA solution, the radioactivity was measured using a liquid scintillation counter. The effect of the test substance in suppressing photoallergy due to KP was evaluated using as an index the degree of suppression of the increase in ^3H-TdR uptake by KP, that is, the ^3H-TdR uptake suppression rate (%) toward the KP group.

[3] = test system: Hartley white female guinea pig; experiment: In vivo photoallergy test 2 (skin photoallergy test, Adjuvant and Strip Method); conditions: 2% KP + 2% test substance, toward KP group
Description: A skin photoallergy test using a guinea pig was carried out by partially refining the Adjuvant and Strip Method of Sato et al., (The Nishinihon Journal of Dermatology, 42, 831-837 (1980)). That is, the back of the neck of a Hartley white female guinea pig (a group of 8 animals) was depilated, an adjuvant was administered to four corners of 2×2 cm, a 2% ethanol solution of ketoprofen (KP) or a solution of 2% KP+2% test substance {4-tert-butyl-4′-methoxydibenzoylmethane ([…])} was openly applied to the 2×2 cm area, and 1 hour later it was irradiated with UVA (10 J/cm^2). This sensitization induction treatment was carried out for 5 days in succession. 3 weeks after starting the sensitization, the back of the hip was depilated, the same solution as for the sensitization was openly applied to a 2×2 cm area, and 1 hour later it was irradiated with UVA (10 J/cm^2) to thus carry out a photoinduction. A skin reaction 24 and 48 hours after the irradiation was evaluated in accordance with the above-mentioned criteria of Sato et al. The effect of BM-DBM in suppressing photoallergy due to KP was evaluated by erythema and swelling suppression rates (%) toward the KP group.

[4] = test substance 0.5% with 2% KP in ethanol on auricle

Question: Which “Ear Swelling Suppression Rate (%)” value (Balb/c mouse [1]; test substance 0.1% with 2% KP in ethanol on auricle) does the source give for `COc1ccc(C(=O)CC(=O)c2ccc(C(C)(C)C)cc2)cc1` [BM-DBM, 4-tert-butyl-4′-methoxydibenzoylmethane] here?
Answer: 41%

Question: What about the “Ear Swelling Suppression Rate (%)” value (Balb/c mouse [1]; test substance 0.3% with 2% KP in ethanol on auricle) of the same molecule?
Answer: 81%

Question: What about the “Ear Swelling Suppression Rate (%)” value (Balb/c mouse [1]; [4]) of the same molecule?
Answer: 98%

Question: What about the “^3H-TdR Uptake Suppression Rate (%)” value (Balb/c mouse [2]; BM-DBM 0.06% with 2% KP in acetone-olive oil) of the same molecule?
Answer: 30%

Question: What about the “^3H-TdR Uptake Suppression Rate (%)” value (Balb/c mouse [2]; BM-DBM 0.13% with 2% KP in acetone-olive oil) of the same molecule?
Answer: 51%

Question: And the “^3H-TdR Uptake Suppression Rate (%)” value (Balb/c mouse [2]; BM-DBM 0.25% with 2% KP in acetone-olive oil)?
Answer: 24%

Question: What about the “^3H-TdR Uptake Suppression Rate (%)” value (Balb/c mouse [2]; BM-DBM 0.50% with 2% KP in acetone-olive oil) of the same molecule?
Answer: 94%

Question: And the “^3H-TdR Uptake Suppression Rate (%)” value (Balb/c mouse [2]; BM-DBM 1.00% with 2% KP in acetone-olive oil)?
Answer: 99%

Question: And the “Erythema/Swelling Suppression Rate (%) After 24 Hr” value ([3]; UVA 10 J/cm^2, 24 hours after photoinduction irradiation)?
Answer: 69%

Question: And the “Erythema/Swelling Suppression Rate (%) After 48 Hr” value ([3]; UVA 10 J/cm^2, 48 hours after photoinduction irradiation)?
Answer: 74%

Question: With `CCCCC(CC)COC(=O)CCN1C(=O)NC(=Cc2ccc(OC)c(OC)c2)C1=O` (stereo not shown) [DB-DIH, 2-ethylhexyl dimethoxybenzylidenedioxoimidazolidine propionate] as the molecule, how does the “Ear Swelling Suppression Rate (%)” value (Balb/c mouse [1]; [4]) read?
Answer: 34%

Question: How did the “Ear Swelling Suppression Rate (%)” value (Balb/c mouse [1]; [4]) turn out when `CCCCCCOC(=O)c1ccccc1C(=O)c1ccc(N(CC)CC)cc1O` [DHB-BH, n-hexyl 2-(4-diethylamino-2-hydroxybenzoyl)benzoate] was run?
Answer: 84%

Question: Which “Ear Swelling Suppression Rate (%)” value (Balb/c mouse [1]; [4]) does the source give for `CC1(C)C2CCC1(CS(=O)(=O)O)C(=O)/C2=C\c1ccc(/C=C2/C(=O)C3(CS(=O)(=O)O)CCC2C3(C)C)cc1` [TP-DCS, terephthalylidene-3,3′-dicamphor-10,10′-disulfonic acid] here?
Answer: 65%
